A melting point compilation (Tetko et al.; mined from patent text by program, amines drawn as free bases though some values may be those of a salt)

Structure (SMILES) | melting point [°C]
CC(C)n1nc(-c2cnc(N)nc2-c2ccc(Cl)cc2)ccc1=O | 195
CC(C)[Si]1(C(C)C)C([Si](C)(C)C)=C(c2ccccc2)C(c2ccccc2)=C1[Si](C)(C)C | 107
O=C1OCC2(CC2)N1c1nc(-c2ccc(Br)cc2)cs1 | 201 to 202
COc1cccc(NC(=O)NCc2ccc3c(c2)C(=O)N(C2CCC(=O)NC2=O)C3=O)c1 (stereo not given) | 323 to 325
Cc1cc(Nc2ncnc3ccc(-n4ccnc4)cc23)ccc1OCc1ccccn1 | 208 to 211
CCCCc1nc(Cl)c(CO)n1Cc1ccc(-c2ccccc2-c2nnnn2C(c2ccccc2)(c2ccccc2)c2ccccc2)cc1 | 95 to 98
O=C1Nc2ccccc2Oc2c1csc2Cl | 224 to 227
O=c1[nH]c2ccccc2n1CCCN1CCC(c2noc3cccc(F)c23)CC1 | 174 to 175
NS(=O)(=O)c1cccc(-c2cn(-c3nc(-c4ccc(Cl)s4)cc(C(F)(F)F)n3)cn2)c1 | 189
CCOc1ccc(C2=NN(C3CCN(S(C)(=O)=O)CC3)C(=O)[C@@H]3CC=CC[C@H]23)cc1OCC | 99 to 102
CCn1c(=O)c2c(nc(/C=C/c3ccc4c(c3)OCCO4)n2C)n(CC)c1=O | 233 to 234
CCOC(=O)N1CCC2C(C1)c1cccc3c1N2CC(=O)N3 (stereo not given) | 167 to 168
CC(COc1ccc(CC2SC(=O)NC2=O)cc1)N1CC(Cc2ccccc2)OC1=O (stereo not given) | 60 to 70
CCOC(=O)Cn1c2c(c3cc(Cl)cc(Cl)c31)CCN(C(=O)OC(C)(C)C)CC2 | 117 to 120
CCCCNc1ccc(OC)c(Cl)c1Cl | 47 to 49
CC(=O)c1ccc(OCCCCl)cc1O | 74
CCOC(=O)C(C#N)(CCBr)c1cc(OC)c(OC)c(OC)c1 (stereo not given) | 76 to 77
CC(=O)OC1CCC2(C)C(=CCC3C2CCC2(C)C(n4nccn4)=C(C=O)CC32)C1 (stereo not given) | 145 to 148
CC(=O)N1CCn2nc(-c3ccc(F)cc3)c(-c3ccncc3)c2N1 | 216 to 218
NC(=O)c1c(Cl)cc(Cl)c(O)c1Cl | 204 to 206
CCCc1ccc(CCNC(C)=O)cc1 | 52
COc1cc(N)c(Cl)cc1C(=O)NCC1CCN(CCCS(=O)(=O)Cc2ccccc2)CC1 | 166 to 168
CC1(C)OC(=O)N(Cc2ccccc2[N+](=O)[O-])C1=O | 134

Structure (SMILES) | melting point [°C]
CC(C)N1CCC(n2nc(-c3c(-c4ccccc4)nn4ccccc34)ccc2=O)CC1 | 158
N#Cc1c(N2CCNCC2)c2cc(Cl)ccc2n(Cc2ccccc2)c1=O | 156
COCCCc1ccc(C#CC2(O)CN3CCC2CC3)cc1 (stereo not given) | 145
OC1COC(O)C(F)(F)C1O (stereo not given) | 146 to 148
Cc1c(C(=O)O)c(=O)c(Br)c(-c2ccccc2)n1C | 257 to 258
O=C(c1ccccc1F)N1C(=O)c2ccccc2S1(=O)=O | 148 to 151
CCC(C)C1C(=O)NN(c2ccc(Cl)c(Cl)c2)C1=O (stereo not given) | 118 to 120
COc1ccc2c3c1c(C)c(-c1ccc(O)cc1)n3CC(CCN1CCN(c3cc(C)ccn3)CC1)O2 (stereo not given) | 193 to 195
COc1ccc(C(=O)O)cc1OC(C)(C)C | 177 to 178
O=C(CCCN1CCC(Cc2ccccc2)CC1)c1ccc2c(c1)C(=O)c1cc(C(=O)CCCN3CCC(Cc4ccccc4)CC3)ccc1-2 | 141 to 143
COc1ccccc1C=C1N=C(c2ccccc2)OC1=O | 159 to 161
Cc1ccccc1-n1ccc2c(Cl)nc3c(C)cccc3c21 | 135 to 137
O=C(O)c1cccc(NC(=O)c2sc3c([N+](=O)[O-])c(O)c(O)cc3c2Cl)c1 | 293 to 294
COC1=C(OC)C(=O)C(CCCCCCCCCC=O)=C(C)C1=O | 44.5 to 46.5
Cc1ccc2c(c1)[nH]c(=O)n2CCCN1CCN(C(c2ccccc2)c2ccccc2)CC1 | 178
CCc1cc(-c2ccc(-c3ccn(CC(=O)OC)n3)cc2)ccc1OC | 116 to 120
CC(C)c1nc(CO)n(Cc2ccc([N+](=O)[O-])cc2)c1Sc1cc(Cl)cc(Cl)c1 | 192 to 194
Cc1cc2cc(C3(O)CCN(C)CC3)ccc2o1 | 118 to 120
O=c1cc(C(F)(F)F)[nH]n1-c1cccc([N+](=O)[O-])c1 | 166
COC(=O)N[C@H]1Cc2ccccc2C1=O | 157 to 159
N#Cc1cnn(-c2c(Cl)cc(C(F)(F)F)cc2Cl)c1N1CCC1=O | 162 to 164
O=C1OCCN1c1ccc(F)c([N+](=O)[O-])c1 | 135
CCCS(=S)c1cccc(OS(C)(=O)=O)n1 (stereo not given) | 51 to 53

Structure (SMILES) | melting point [°C]
Cc1cc(C2=c3ccc(=C4C(=O)c5ccccc5C4=O)cc3OC2=O)cc(C)c1N | > 250
O=C1c2ccccc2CN1CSc1ccncc1 | 131 to 132
COc1ccc(Nc2nc(Cl)nc(Cl)n2)cc1F | 134
COC(=O)c1sc(Cl)c(Cl)c1O | 107 to 108
CCn1nc2c(N)nc3cnccc3c2c1CC(C)(C)C | > 260
CN1CC=C(c2c[nH]c3ccc(N)cc23)CC1 | 200 to 203
CSc1ccc(N2C(=O)N(CC(=O)Nc3c(C(C)C)cccc3C(C)C)C(=O)C23CCOCC3)cc1 | 240
FC(F)(F)c1cccnc1OCc1ccnc2cc(Cl)ccc12 | 125 to 127
Cc1cc2cnn(CCO)c2cc1Nc1nnc2n1[C@H](c1ccc(F)cc1)COC2 | 215 to 217
O=C(NC1CCCCC1)c1ccc(-c2cnc(-c3ccc(NC(=O)c4ccccn4)cc3)[nH]2)cc1 | 250 to 252
CCCCOc1cc2c(cc1C=Cc1ccc(C(=O)O)cc1)C(C)(C)CCC2(C)C | 194 to 196
COC(=O)C1=C(C)Nc2[nH]nc(-c3ccccc3)c2C1c1cccc([N+](=O)[O-])c1 (stereo not given) | 240 to 241
O=C(O)c1ccc(-c2nc(-c3cccc(Oc4ccccc4)c3)no2)cc1 | 292 to 293
CN(C)c1ncnc2c(-c3ccncc3)cnn12 | 184 to 185
O=C(CCl)Nc1nc(-c2ccccc2)cs1 | 179 to 181
CC1COCc2nc3c(N)nc4ccc(OCc5cscn5)cc4c3n21 (stereo not given) | 240 to 242
O=C(NC1CN2CCC1CC2)c1cccc2oc(-c3ccccc3)nc12 (stereo not given) | 77 to 80
CCOc1ccc(-c2cn(C)c(SCC)n2)cc1 | 98.2
CC(C)(C)NC(=O)NC(Cc1ccccc1)C(=O)Nc1c(F)cc(F)cc1F (stereo not given) | 205 to 206
COC(=O)CNC(=O)c1ccc(Cl)c(Cl)c1 | 133 to 134
Cn1ncnc1COc1nn2c(-c3ccccc3F)nnc2cc1-c1cccs1 | 189 to 190
O=C(/C=C/c1ccsc1)N1CCOCC1 | 141 to 142

The remaining lines, values ahead:

melting point [°C] | Structure (SMILES)
179 to 181 | FC(F)(F)c1ccc(/C=C/c2nc(COc3ccc(-c4nc(Cn5ccnn5)co4)cc3)cs2)cc1
208 | COC(=O)c1cc2cc(C=O)c3ccccc3c2s1
166 to 168 | O=C1c2ccccc2C(=O)N1C1CCCc2sccc21 (stereo not given)
165 to 168 | O=C1Nc2ccccc2N(C(=O)Cc2ccccc2)c2cscc21
77 to 79 | CCCCCCCCCCCCc1cc2cc(C(=O)OCC)ccc2[nH]1
71 to 72 | Cc1ccc(CC(C(=O)c2ccccc2)N2CCCCC2)cc1 (stereo not given)
91 to 92 | CCCCCCCCCCCCSCCCN=C=O
134 | CCCOC(=O)OC1CSC(Oc2ccc3c(C)cc(=O)oc3c2)C(OC(=O)OCCC)C1OC(=O)OCCC (stereo not given)
90.5 to 91.5 | CCC(O)CN1CCC(C)C(c2ccc(Cl)cc2)=N1 (stereo not given)
197 to 199 | CC(C)(Oc1c(Br)cc(-c2c3ccccc3c(Br)c3sc4ccccc4c23)cc1Br)C(=O)O
171 to 172 | CCOc1ccc2nc(CN3CCN(c4ccc(Cl)cc4Cl)CC3)cn2c1
143 to 144 | O=C(Nc1ccc(-n2nc(C(F)(F)F)cc2Br)cc1)c1ccncc1F
162 | CC1(C)Oc2ccc(C(N)=O)cc2[C@H](NCCc2ccccc2)[C@H]1O (relative stereo)
138 to 139 | CN1CCC(C2c3cccc4c3N(CC4)c3ccccc3N2C)CC1 (stereo not given)
47 to 49 | CN(C)CCCOc1ccc(-c2nnc(CSCCOc3ccccc3)o2)nc1
232 to 236 | CCn1c2ccccc2c2c3c(c(-c4ccccc4Cl)cc21)C(O)NC3=O (stereo not given)

melting point [°C] | Structure (SMILES)
182 | COc1cc(CCc2ccccc2OCc2ccccc2)ncc1C(=O)O
159 to 162 | Cc1ccc(N2N=C3c4cc(OCCCN(C)C)ccc4CCC3CC2=O)cc1 (stereo not given)
118 to 119 | CP(=O)(O)CNC(=O)OCc1ccccc1
88 to 90 | Cc1ccc(C(=O)CC(=O)OC(C)(C)C)c(O)c1
261 to 264 | Cn1c(=O)nc(-c2ccccc2)c2cc([N+](=O)[O-])ccc21
124 to 125 | Nc1ccccc1Nc1ccccn1
130 to 132 | COC(=O)/C=C/c1c(F)cc2nn(C)cc2c1C(=O)OC
127 | CCC(Oc1ccc(C2CCOCC2)cc1)C(=O)O (stereo not given)
149 | Cc1ccc2c(c1)[nH]c(=O)n2CCCN1CCC(C(=O)c2ccc(F)cc2)CC1
95 to 97 | Cc1cc([N+](=O)[O-])cnc1Oc1ccc(Cl)c(C(F)(F)F)c1
188 to 190 | O=C1c2ccccc2-c2c1c1ccccc1c(=O)n2CCCCCCNS(=O)(=O)c1ccc(Br)cc1
158 to 160 | C[C@@H](n1cnc2cc(C(F)(F)F)ccc2c1=O)[C@](O)(Cn1cncn1)c1ccc(Cl)cc1Cl
118 to 120 | CCSCCOC(=O)C(Br)=Cc1cc(-n2c(=O)cc(C(F)(F)F)n(C)c2=O)ccc1Cl
178 to 179 | OC(Cc1ccc(Cl)cc1Cl)(Cn1ccnc1)c1ccc(F)cc1 (stereo not given)
196 to 198 | O=C1c2ccc([N+](=O)[O-])cc2C(=O)N1CC(=O)N1c2ccccc2N(Cc2ccccc2)C(=O)[C@H]2CCC[C@H]21 (relative stereo)
97 to 99 | CCC1(CC)CC(=O)c2ccc(O)cc2O1
